# Experimental data taken from patent US20230011800A1, “[…] CHIP FOR […] AND TOXICITY ON NERVE, AND USE THEREOF” (CHA UNIVERSITY INDUSTRY-ACADEMIC COOPERATION FOUNDATION, priority 2019, published 2023).
# “Also recorded” adds a separate entry of the source.
# Legend:
# Assay type in all cases: cell-based
# [1] = test system: astrocytes differentiated from human stem cells (hPSCs); assay: MeHg toxicity on astrocytes cultured in the nerve chip, Calcein-AM live cell imaging
# Excerpt: Astrocytes, differentiated from human stem cells (hPSCs), were secured by direct differentiation. Human stem cells (hPSCs) were maintained through culture and passage by using TeSr-E8 medium in a Matrigel-coated culture dish, and for differentiation into neurons, neural progenitor cells (NPCs) were first prepared. The stem cell colonies were detached using […], and then embryoid bodies (EBs) were formed using DMEM/F12 medium containing 20% knock out serum replacement, 1% nonessential amino acids, 55 μM β-mercaptoethanol, 10 μM SB431542, and 5 μM DMH1, and then again attached to a Matrigel-coated culture dish to form neural rosettes in DMEM/F12 medium containing 1% N2 supplement, […] insulin, and 20 ng/mL basic fibroblast growth factor. Only the center of the rosettes was separated using a thinly drawn Pasteur pipette, and then cultured in DMEM/F12 medium containing 1% N2 supplement, 20 ng/mL basic fibroblast growth factor, and 20 ng/mL epidermal growth factor to secure NPCs. The secured NPCs were again attached to a Matrigel-coated culture dish at a density of 2.8×10^3 cells/cm, and cultured in DMEM/F12 medium containing 1% N2 supplement, 2% vitamin A-removed B27 supplement, 10 ng/mL bone morphogenetic protein-4, 10 ng/mL ciliary neurotrophic factor, and 10 ng/mL leukemia inhibitory factor to thereby obtain finally differentiated astrocytes. […]
# It was assessed whether neurotoxicity can be evaluated by a noticeable biomimetic nerve chip of the present invention in which an in vivo environment similar to physiological characteristics of the nervous system was constructed. […] The neurotoxicity evaluation was conducted by treating a chip having only neurons cultured and a chip having neurons and astrocytes co-cultured, with MeHg at various concentrations (0 μM, 1 μM, 5 μM, 10 μM) for 3 hours and then examining the cell response changes according to the MeHg time and concentration through real-time live cell imaging and immunocytochemistry, and then the functionality of the biomimetic nerve chip as a drug toxicity evaluation platform was assessed (FIGS. 8 to 10).
# [2] = test system: neurons differentiated from human stem cells (hPSCs) (Neurosight-S); assay: MeHg neurotoxicity on neurons cultured alone in the nerve chip, immunostaining with Tuj1 and MAP2; settings: 1 μM, 5 μM and 10 μM MeHg, 3 hours
# Description: (§1) It was assessed whether neurotoxicity can be evaluated by a noticeable biomimetic nerve chip of the present invention in which an in vivo environment similar to physiological characteristics of the nervous system was constructed. First, methylmercury chloride (MeHg), a representative environmental toxic substance known to pass through the brain barrier regardless of a structure of the brain barrier and to have neurotoxicity, was selected as a toxic substance for treatment. The neurotoxicity evaluation was conducted by treating a chip having only neurons cultured and a chip having neurons and astrocytes co-cultured, with MeHg at various concentrations (0 μM, 1 μM, 5 μM, 10 μM) for 3 hours and then examining the cell response changes according to the MeHg time and concentration through real-time live cell imaging and immunocytochemistry, and then the functionality of the biomimetic nerve chip as a drug toxicity evaluation platform was assessed (FIGS. 8 to 10).
# The cell types can be distinguished by morphological characteristics of cells, but Calcein-AM targets all living cells regardless of the type of cells and thus cannot clearly identify the types of cells. The present inventors re-examined whether the neurons were damaged at the same extent by MeHg, through immunostaining using Tuj1 and MAP2 antibodies targeting only neurons (FIG. 8C).
# [3] = test system: neurons co-cultured with astrocytes (human stem cell-derived); assay: MeHg neurotoxicity on neurons co-cultured with astrocytes in the nerve chip (astrocyte neuroprotection), Calcein-AM and MAP2
# Description: (§2) The injection of cells was conversely conducted. Human stem cell-derived neurons (Neurosight-S) were preferentially injected, wherein the neurons were prepared at an appropriate concentration for injection of 15×10^4 cells/6 μL, load into the neuron inlet, and injected into the neuron chamber. Human stem cell-derived astrocytes were prepared at an appropriate concentration for injection of 15×10^4 cells/6 μL, and nozzles of syringes each carrying 30 μL were connected to the astrocyte inlets, and the astrocytes were injected into the two astrocyte chambers by using a syringe pump.
# as §1
# Finally, it was examined whether there was a neuroprotective function from the neurotoxicity of MeHg depending on the presence or absence of astrocytes inside the biomimetic nerve chip. MeHg treatment was conducted under two conditions in which […] were cultured alone and neurons and astrocytes were co-cultured, and the cell viability was evaluated in real time according to the time and concentration changes by using Calcein-AM (FIGS. 10A to 10C). […]
# [4] = test system: astrocytes differentiated from human stem cells (hPSCs); assay: MeHg toxicity on astrocytes in the nerve chip, immunostaining with GFAP and S100B; settings: 3 hours
# Description: as §1
# On the basis of the assertion that this S100B increase is associated with CNS damage, immunostaining was performed using GFAP and S100B, which were used as markers for brain damage due to metal-induced neurotoxicity, in order to identify astrocytes and examine the response of astrocytes in the MeHg detection (FIG. 9C).
# [5] = test system: neurons differentiated from human stem cells (hPSCs) (Neurosight-S); assay: MeHg neurotoxicity on neurons cultured alone in the biomimetic nerve chip, Calcein-AM live cell imaging
# Description: Neurons differentiated from human stem cells (hPSCs) were secured through neurons (Neurosight-S) by NEXEL. A stock was thawed and injected immediately into the chip. The neurons were prepared at an appropriate concentration for injection of 15×10^4 cells/6 μL, loaded into the neuron inlet included in the nerve chip of the present invention, and injected into the neuron chamber passing through the neuron channel. The bottom of the neuron chamber was coated with Matrigel, which was three times more concentrated than usual, for stable attachment in the chip, and the neurons were cultured in Neurosight-S medium supplemented with Supplement (100×) for 3 days during which neurites can be formed.
# as §2, §1
# Most of the neurons in the control group formed neurite networks while having intact cell bodies and neurites.
# The MeHg treatment concentrations were set to 1 μM, 5 μM, and 10 μM, and similarly, the viability of neurons was examined in real time through Calcein-AM.
# [6] = in the presence of astrocytes, MeHg 1, 5, 10 μM, 3 hours
# [7] = as the concentration of MeHg increased (1, 5, 10 μM)
smiles,measurement,setting,value
"[CH3][Hg][Cl] [MeHg, methylmercury chloride]","degree of morphological change of astrocytes according to concentration, Calcein-AM","[1]; MeHg 1, 5, 10 μM, 3 hours",no significant difference in the degree of morphological change due to cell aggregation regardless of the concentration
same,"cell viability of astrocytes, Calcein-AM","[1]; MeHg 1, 5, 10 μM, up to 3 hours",no decrease in cell viability was observed
same,"morphological changes of astrocytes over time, Calcein-AM","[1]; MeHg, 1-hour intervals for 3 hours",morphological changes of astrocytes due to cell aggregation were observed over time
same,"damage to neurons, immunostaining Tuj1 and MAP2",[2],the damage to cells increased as the concentration increased
same,Calcein-AM signal of neurons according to concentration,[3]; [6],maintained without any decrease
same,MAP2 signal of neurons according to concentration,[3]; [6],maintained without any decrease
same,"viability and morphological changes of neurons over time, Calcein-AM","[3]; neurons co-cultured with astrocytes, 10 μM MeHg, until 3 hours after treatment","no significant changes were observed, except for a few strands of neurites that partially disappeared"
same,GFAP expression signal in astrocytes,[4]; [7],the GFAP signal decreased
same,S100B expression signal in astrocytes,[4]; [7],the S100B signal increased
same,"viability of astrocytes, immunostaining","[4]; astrocytes, MeHg 1, 5, 10 μM",the viability of astrocytes was not changed
same,"viability and morphology of neurons (neurites), Calcein-AM","[5]; 1 μM MeHg, after 3 hours",some neurites endured neurotoxicity of MeHg without damage to maintain the state thereof
same,"viability and morphology of neurons (neurites), Calcein-AM","[5]; 5 μM MeHg, after 3 hours","the neurites almost completely disappeared, leaving only fragmented fragments and only a form of cell bodies; also recorded: neurites disappeared and only the cell bodies remained"
same,"viability and morphology of neurons (neurites), Calcein-AM","[5]; 5 μM MeHg, until 2 hours after treatment",the neurites maintained the state thereof with deterioration little by little without any significant change
same,Calcein-AM signal of neurons over time,"[5]; 10 μM MeHg, 1-hour intervals for 3 hours",most of the Calcein-AM signals started to rapidly decrease 2 hours after MeHg treatment
same,"viability and morphology of neurons (neurites, cell bodies), Calcein-AM","[5]; 10 μM MeHg, after 3 hours",even the fluorescence signal of the remaining cell bodies was greatly reduced
